Columns and labels:
[1] = tested on: rabbit serum obtained by immunizing a rabbit with the SARS-CoV strain Frankfurt 1; format: binding; design: Binding of a rabbit serum to linear peptides / Binding of a rabbit serum to looped peptides / Rabbit serum linear peptides / Rabbit serum looped peptides / Binding of a rabbit serum to linear peptides of protein N of SARS-CoV Urbani (Rabbit serum linear peptides) / Binding of a rabbit serum to looped/cyclic peptides of protein N of SARS-CoV Urbani (Rabbit serum looped peptides): unit not given here
[2] = tested on: antibodies in sera from SARS patients (sera 1a, 1b, 2, 6, 37, 62, London, SARS-yellow, SARS-green); format: binding, human; design: Binding of serum 6 to linear peptides of protein X1 of SARS-CoV Urbani / Binding of serum 37 to linear peptides of protein X1 of SARS-CoV Urbani / Binding of serum 6 to looped/cyclic peptide (PEPSCAN-ELISA) / Binding of serum 37 to looped/cyclic peptide (PEPSCAN-ELISA) / Binding of serum 37 to looped/cyclic peptides of protein X1 of SARS-CoV Urbani / Binding of serum 6 to linear peptides of protein X2 / Binding of serum 37 to linear peptides of protein X2 / Binding of serum 37 to looped/cyclic peptides of protein X2 of SARS-CoV Urbani / Binding of serum 6 to linear peptides of protein M of SARS-CoV Urbani / Binding of serum 37 to linear peptides of protein M of SARS-CoV Urbani / Binding of serum 6 to looped/cyclic peptides of protein M of SARS-CoV Urbani / Binding of serum 37 to looped/cyclic peptides of protein M of SARS-CoV Urbani / Binding of serum 6 to linear peptides of protein X3 of SARS-CoV Urbani / Binding of serum 37 to linear peptides of protein X3 of SARS-CoV Urbani / Binding of serum 37 to looped/cyclic peptides of protein X3 of SARS-CoV Urbani / Binding of serum 6 to linear peptides of protein X4 of SARS-CoV Urbani / Binding of serum 37 to linear peptides of protein X4 of SARS-CoV Urbani / Binding of serum 37 to looped/cyclic peptides of protein X4 of SARS-CoV Urbani / Binding of serum 6 to linear peptides of protein X5 of SARS-CoV Urbani / Binding of serum 37 to linear peptides of protein X5 of SARS-CoV Urbani / Binding of serum 37 to looped/cyclic peptides of protein X5 of SARS-CoV Urbani / Binding of serum 6 to linear peptides of protein N of SARS-CoV Urbani / Binding of serum 37 to linear peptides of protein N of SARS-CoV Urbani / Binding of serum 6 to linear peptide (PEPSCAN-ELISA) / Binding of serum 1a to looped/cyclic peptides of protein N of SARS-CoV Urbani / Binding of serum 1b to looped/cyclic peptides of protein N of SARS-CoV Urbani / Binding of serum 2 to looped/cyclic peptides of protein N of SARS-CoV Urbani / Binding of serum 6 to looped/cyclic peptides of protein N of SARS-CoV Urbani / Binding of serum 37 to looped/cyclic peptides of protein N of SARS-CoV Urbani / Binding of serum 62 to looped/cyclic peptides of protein N of SARS-CoV Urbani / Binding of serum London to looped/cyclic peptides of protein N of SARS-CoV Urbani / Binding of serum SARS-green to looped/cyclic peptides of protein N of SARS-CoV Urbani: unit not given here
[3] = tested on: control sera (pooled serum of ten healthy LUMC hospital workers; commercial negative donor pooled serum from the Dutch bloodbank); format: binding, human; design: Binding of Control serum LUMC to linear peptides / Binding of Control serum Blood-bank to linear peptides / Binding of Control serum LUMC to looped peptides / Binding of Control Serum Blood-Bank to Looped peptides / Binding of Control serum LUMC to linear peptides of the protein M of SARS-CoV Urbani / Binding of Control serum Blood-bank to linear peptides of the protein M of SARS-CoV Urbani / Binding of Control serum LUMC to looped peptides of the protein M of SARS-CoV Urbani / Binding of Control Serum Blood-Bank to Looped peptides of the protein M of SARS-CoV Urbani: unit not given here
[4] = tested on: recombinant human anti-SARS-CoV antibody 03-018; format: binding; design: Binding of antibody 03-018 to linear peptides of the N protein of SARS-CoV Urbani / Binding of antibody 03-018 to looped/cyclic peptides of the N protein of SARS-CoV Urbani: unit not given here

Sequence | Binding of a rabbit serum to linear peptides of protein N of SARS-CoV Urbani (Rabbit serum linear peptides) [1] | Binding of a rabbit serum to looped/cyclic peptides of protein N of SARS-CoV Urbani (Rabbit serum looped peptides) [1] | Binding of serum 1a to linear peptides of protein N of SARS-CoV Urbani [2] | Binding of serum 1a to looped/cyclic peptides of protein N of SARS-CoV Urbani [2] | Binding of serum 1b to linear peptides of protein N of SARS-CoV Urbani [2] | Binding of serum 1b to looped/cyclic peptides of protein N of SARS-CoV Urbani [2] | Binding of serum 2 to linear peptides of protein N of SARS-CoV Urbani [2] | Binding of serum 2 to looped/cyclic peptides of protein N of SARS-CoV Urbani [2] | Binding of serum 6 to linear peptides of protein N of SARS-CoV Urbani [2] | Binding of serum 6 to looped/cyclic peptides of protein N of SARS-CoV Urbani [2] | Binding of serum 37 to linear peptides of protein N of SARS-CoV Urbani [2] | Binding of serum 37 to looped/cyclic peptides of protein N of SARS-CoV Urbani [2] | Binding of serum 62 to linear peptides of protein N of SARS-CoV Urbani [2] | Binding of serum 62 to looped/cyclic peptides of protein N of SARS-CoV Urbani [2] | Binding of serum London to linear peptides of protein N of SARS-CoV Urbani [2] | Binding of serum London to looped/cyclic peptides of protein N of SARS-CoV Urbani [2] | Binding of serum SARS-green to linear peptides of protein N of SARS-CoV Urbani [2] | Binding of serum SARS-green to looped/cyclic peptides of protein N of SARS-CoV Urbani [2] | Binding of serum SARS-yellow to linear peptides of protein N of SARS-CoV Urbani [2] | Binding of serum SARS-yellow to looped/cyclic peptides of protein N of SARS-CoV Urbani [2] | further results
VTLLPAADMDDFSRQ | 0.0 | 0.0 | 0.3 | 0.3 | 0.1 | 0.1 | 0.2 | 0.2 | 0.1 | 0.0 | 0.6 | 0.1 | 0.6 | 0.4 | 0.6 | 0.1 | 0.3 | 0.2 | 0.6 | 0.2 | Control Serum Blood-Bank Looped peptides [3]: 0.1; Control serum Blood-bank linear peptides [3]: 0.5; Control serum LUMC linear peptides [3]: 0.5; Control serum LUMC looped peptides [3]: 0.4; Binding of antibody 03-018 to linear peptides of the N protein of SARS-CoV Urbani [4]: 0.1; Binding of antibody 03-018 to looped/cyclic peptides of the N protein of SARS-CoV Urbani [4]: 0.2
QSNQRSAPRITFGGP | – | – | 0.2 | 0.5 | 0.1 | 0.3 | 0.2 | 0.6 | 0.1 | 0.4 | 0.7 | 0.8 | 0.7 | 0.7 | 0.4 | 0.5 | 0.5 | 0.5 | 0.5 | 0.7 | Recognition of the peptide by the rabbit serum [1]: also recognized; Binding of Control Serum Blood-Bank to Looped peptides [3]: 0.7; Binding of Control serum Blood-bank to linear peptides [3]: 0.6; Binding of Control serum LUMC to linear peptides [3]: 0.5; Binding of Control serum LUMC to looped peptides [3]: 0.9; Recognition of the peptide by antibody 03-018 [4]: recognized
ASWFTALTQHGKEEL | 0.1 | 0.1 | 0.2 | 0.2 | 0.1 | 0.1 | 0.1 | 0.2 | 0.1 | 0.1 | 0.9 | 0.4 | 0.6 | 0.3 | 0.5 | 0.3 | 0.4 | 0.2 | 0.4 | 0.1 | Binding of Control Serum Blood-Bank to Looped peptides [3]: 0.5; Binding of Control serum Blood-bank to linear peptides [3]: 0.7; Binding of Control serum LUMC to linear peptides [3]: 0.5; Binding of Control serum LUMC to looped peptides [3]: 0.4; Binding of antibody 03-018 to linear peptides of the N protein of SARS-CoV Urbani [4]: 0.1; Binding of antibody 03-018 to looped/cyclic peptides of the N protein of SARS-CoV Urbani [4]: 0.2
GNSPARMASGGGETA | 0.1 | 0.0 | – | 0.2 | – | 0.1 | – | 0.3 | – | 0.1 | – | 0.2 | – | 0.2 | – | 0.3 | – | 0.3 | – | 0.0 | Binding of serum 1a to linear peptide (PEPSCAN-ELISA) [2]: 0.3; Binding of serum 1b to linear peptide (PEPSCAN-ELISA) [2]: 0.1; Binding of serum 2 to linear peptide (PEPSCAN-ELISA) [2]: 0.2; Binding of serum 6 to linear peptide (PEPSCAN-ELISA) [2]: 0.2; Binding of serum 37 to linear peptide (PEPSCAN-ELISA) [2]: 0.6; Binding of serum 62 to linear peptide (PEPSCAN-ELISA) [2]: 0.6; Binding of serum London to linear peptide (PEPSCAN-ELISA) [2]: 0.6; Binding of serum SARS-green to linear peptide (PEPSCAN-ELISA) [2]: 0.2; Binding of serum SARS-yellow to linear peptide (PEPSCAN-ELISA) [2]: 0.5; Binding of Control Serum Blood-Bank to Looped peptides [3]: 0.5; Binding of Control serum Blood-bank to linear peptides [3]: 0.8; Binding of Control serum LUMC to linear peptides [3]: 0.7; Binding of Control serum LUMC to looped peptides [3]: 0.4; Binding of antibody 03-018 to linear peptides of the N protein of SARS-CoV Urbani [4]: 0.2; Binding of antibody 03-018 to looped/cyclic peptides of the N protein of SARS-CoV Urbani [4]: 0.2
